Data reported in patent US8367873B2, “Phenyl-substituted bicyclooctane-1,3-dione derivatives” (Bayer Cropscience AG, priority 2008, dated 2013).

Experiments:
Type in all cases: in vivo
[1] = tested on: Alopecurus myosuroides; test: Herbicidal pre-emergence action; details: pre-emergence method, 80 g/ha, greenhouse, visual assessment vs untreated controls
Method in brief: (§1)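 Test compounds, as wettable powder suspensions with 0.2% wetting agent at a water rate of 600 l/ha, were applied in different amounts to the covering soil over freshly sown seeds in sandy loam. Emergence damage was rated visually in percent against untreated plants after three weeks under greenhouse conditions.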

[2] = tested on: Echinocloa crus-galli; test: Herbicidal pre-emergence action; details: pre-emergence method, 80 g/ha, greenhouse, visual assessment vs untreated controls
Method in brief: as §1

[3] = tested on: Lolium multiflorum; test: Herbicidal pre-emergence action; details: pre-emergence method, 80 g/ha, greenhouse, visual assessment vs untreated controls
Method in brief: as §1

[4] = tested on: Setaria viridis; test: Herbicidal pre-emergence action; details: pre-emergence method, 80 g/ha, greenhouse, visual assessment vs untreated controls
Method in brief: as §1

[5] = tested on: Alopecurus myosuroides; test: Herbicidal post-emergence action; details: post-emergence method; for herbicidal effect against ALOMY (Alopecurus myosuroides): 80 g/ha
Method in brief: (§2)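 One-leaf-stage greenhouse plants sprayed with WP at graded amounts (600 l/ha, 0.2% wetting agent); ~3 wk later, visual % effect rated vs untreated controls, 100% = dead, 0% = like control.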

[6] = tested on: Echinocloa crus-galli; test: Herbicidal post-emergence action; details: post-emergence method; for herbicidal effect against ECHCG (Echinochloa crus-galli): 80 g/ha
Method in brief: as §2

[7] = tested on: Lolium multiflorum; test: Herbicidal post-emergence action; details: post-emergence method; for herbicidal effect against LOLMU (Lolium multiflorum): 80 g/ha
Method in brief: as §2

[8] = tested on: Setaria viridis; test: Herbicidal post-emergence action; details: post-emergence method; for herbicidal effect against SETVI (Setaria viridis): 80 g/ha
Method in brief: as §2

[9] = tested on: monocotylidonous and dicotylidonous weed and crop plants; test: Herbicidal pre-emergence action (other test plants); details: pre-emergence method, 80 g/ha, greenhouse, visual assessment vs untreated controls
Method in brief: as §1

[10] = tested on: monocotylidonous and dicotylidonous weed and crop plants; test: Herbicidal post-emergence action (other test plants); details: post-emergence method; for herbicidal effect against AVEFA (Avena fatua): 80 g/ha
Method in brief: as §2

Compound	herbicidal effect ALOMY [1] [%]	herbicidal effect ECHCG [2] [%]	herbicidal effect LOLMU [3] [%]	herbicidal effect SETVI [4] [%]	herbicidal effect against ALOMY (Alopecurus myosuroides) [5] [%]	herbicidal effect against ECHCG (Echinochloa crus-galli) [6] [%]	herbicidal effect against LOLMU (Lolium multiflorum) [7] [%]	herbicidal effect against SETVI (Setaria viridis) [8] [%]	herbicidal effect AVEFA [9] [%]	herbicidal effect against AVEFA (Avena fatua) [10] [%]	pest or weed control at 80 g/ha ([5]; Alopecurus myosuroides, 504 h, read-out: herbicidal effect against ALOMY (Alopecurus myosuroides)) [%]	pest or weed control at 80 g/ha ([6]; Echinochloa crus-galli, 504 h, read-out: herbicidal effect against ECHCG (Echinochloa crus-galli)) [%]	pest or weed control at 80 g/ha ([7]; Lolium multiflorum, 504 h, read-out: herbicidal effect against LOLMU (Lolium multiflorum)) [%]	pest or weed control at 80 g/ha ([8]; Setaria viridis, 504 h, read-out: herbicidal effect against SETVI (Setaria viridis)) [%]	pest or weed control at 80 g/ha ([10]; 504 h, Avena fatua, read-out: herbicidal effect against AVEFA (Avena fatua)) [%]
CCc1cc(C)cc(CC)c1C1=C(O)[C@H]2CC3(C[C@H]2C1=O)OCC(OCc1ccccc1)CO3 (relative stereo) [I-a-27]	90	100	100	90	100	100	100	90	80	100					
CCOC1COC2(C[C@@H]3C(O)=C(c4c(CC)cc(C)cc4CC)C(=O)[C@@H]3C2)OC1 (relative stereo) [I-a-28]	100	100	100	90	100	100	100	100	80	100					
CCc1cc(C)cc(CC)c1C1=C(O)[C@H]2CC(=NOCC3CC3)C[C@H]2C1=O (relative stereo) [I-a-31]	80	100	100	90	100	100	100	100	40	80					
C#CC(C)ON=C1C[C@@H]2C(O)=C(c3c(CC)cc(C)cc3CC)C(=O)[C@@H]2C1 (relative stereo) [I-a-32]	90	40	100	20	80	100	100	20	60	0					
C=C1C[C@@H]2C(O)=C(c3c(C)cc(C)cc3C)C(=O)[C@@H]2C1 (relative stereo) [I-a-36]	60	80	90	80	50	90	90	90	70	0					
Cc1cc(C)c(C2=C(O)[C@H]3CC4(C[C@H]3C2=O)OCC(C)CO4)c(C)c1 (relative stereo) [I-a-38]	100	40	100	90	100	80	100	90	40	90					
CCc1cc(C)cc(CC)c1C1=C(OC(=O)OC)[C@H]2C[C@]3(COC(C)(C)O3)C[C@H]2C1=O (relative stereo) [I-c-4]	90	60	90	50	90	100	100	0	80	90					
CCOC(=O)OC1=C(c2c(CC)cc(C)cc2CC)C(=O)[C@@H]2CC3(C[C@H]12)OCC=CCO3 (relative stereo) [I-c-11]	90	100	90	90	80	100	90	90	70	80					
C=C1COC2(C[C@@H]3C(OC(=O)OCC)=C(c4c(CC)cc(C)cc4CC)C(=O)[C@@H]3C2)OC1 (relative stereo) [I-c-12]	100	100	100	100	90	100	100	100	80	90					
C=C1C[C@@H]2C(O)=C(c3c(CC)cc(C)cc3CC)C(=O)[C@@H]2C1 (stereo in doubt) [I-a-5, 2-(2,6-diethyl-4-methylphenyl)-3-hydroxy-5-methylidene-4,5,6,6a-tetrahydropentalen-1(3 aH)-one]	60	80	90	70					60		60	100	90	100	50
CCc1cc(C)cc(CC)c1C1=C(O)C2CC3(COC(CC)O3)CC2C1=O (centres unmarked) [I-a-6]	100	60	100	60	90	100	100	90	60	70					
CCc1cc(C)cc(CC)c1C1=C(O)C2CC3(CC2C1=O)OC(C)CC(C)O3 (centres unmarked) [I-a-15]	80	70	100	70	90	100	100	90	40	90					
Cc1cc(C)c(C2=C(O)C3CC4(CC3C2=O)OCCO4)c(C)c1 (centres unmarked) [I-a-39]	80	0	100	30	100	90	100	90	70	20					
Cc1cc(C)c(C2=C(O)C3CC4(CC3C2=O)OCCCCO4)c(C)c1 (centres unmarked) [I-a-40]	50	80	100	50	80	90	90	80	40	60					
C=C1CC2C(=O)C(c3c(C)cc(C)cc3OC)=C(O)C2C1 (centres unmarked) [I-a-45]	80	100	80	100	0	80	0	80	60	0					
COc1cc(C)cc(C)c1C1=C(O)C2CC3(CC2C1=O)OCCO3 (centres unmarked) [I-a-48]	80	40	80	70	80	100	100	100	60	90					
COc1cc(C)cc(C)c1C1=C(O)C2CC3(CC2C1=O)OCC=CCO3 (centres unmarked) [I-a-49]	100	100	100	90	100	100	100	100	90	100					
